One assay deals with E. coli. Put plainly: Reduction in optical density at 600 nm of E. coli cultures treated with cleaning compositions. It is filed as cell-based. The note with it: 250 ppm. As for the experimental part: The lipopeptide mixture produced by B. amy can be used in environmentally-friendly cleaning compositions and to enhance antimicrobial activity of other biosurfactants. Cleaning compositions were tested for their ability to control Gram-negative E. coli. Reduction in optical density at 600 nm (OD) was measured for cultures treated with each of the following compositions: […]

The next assay relates to Staphylococcus sp. The assay is described as follows: Reduction in optical density at 600 nm of Staphylococcus sp. cultures treated with cleaning compositions. It is filed as cell-based. As to the method:
Cleaning compositions according to embodiments of the subject invention were also tested for their ability to control a Gram-positive Staphylococcus sp. Reduction in optical density at 600 nm (OD) was measured for cultures treated with each of the following compositions: […]

As to linear SLP butyl ester, the “OD600 % reduction after 2 hours” value in the assay on E. coli came out at 91.5%; in the assay with Staphylococcus sp. (250 ppm), 88.1%.

Turning to linear SLP ethyl ester, the entries for the “OD600 % reduction after 2 hours” value with E. coli and in the assay on Staphylococcus sp. (100 ppm) were 89.8% and 98.3%, respectively.

In the case of linear SLP isopropyl ester, the “OD600 % reduction after 2 hours” value came out at 86.4% in the assay on E. coli and 91.5% in the assay with Staphylococcus sp. (50 ppm).

The record behind these values is US20230029570A1, “Bacillus Strain for Applications in Agriculture, Livestock Health and Environmental Protection” (Locus IP Company, LLC, priority 2020, published 2023).
